Measured values from patent publication US20130109682A1, “CYCLIC ETHER COMPOUNDS USEFUL AS KINASE INHIBITORS” (NOVARTIS AG, priority 2010, published 2013).
pEC50, pIC50: −log10 of the molar value.

What was measured:
[1] = molecular target: PIM1 (Homo sapiens, UniProt P11309); test: KinaseGlo Pim1 ATP depletion assay; type: biochemical
Method in brief: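 2.5 nM PIM1 preincubated 15 min with compound and 40 μM BAD peptide in 50 mM HEPES pH 7.5, 5 mM MgCl2, 1 mM DTT, 0.05% BSA, 2.5% DMSO. The reaction was started with 20 μM ATP (final) and run to about 50% ATP depletion. Remaining ATP read by KinaseGlo Plus luminescence to give IC50.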

[2] = system: KMS11 (human myeloma cell line); test: Cell proliferation assay (CellTiter-Glo), KMS11; type: cell-based; conditions: Homo sapiens, KMS-11; KMS11-Luc cells
Method in brief: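 KMS11 cells in IMDM with 10% FBS and sodium pyruvate, seeded at 2000 cells/well on assay day. Compound added at 2× to equal volume of cells, incubated 3 days at 37° C. Viability read by CellTiter-Glo luminescence; EC50 derived.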

[3] = molecular target: GSK3β (Homo sapiens, UniProt P49841); test: GSK3β ATP depletion assay; type: biochemical; conditions: read-out: GSK3b IC50
Method in brief: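 Human GSK3β (5 nM) preincubated 15 min with 10 μM biotinylated phospho-CREB peptide in pH 7.5 Tris buffer (15 mM MgCl2, 1 mM DTT, 0.1% BSA, 2.5% DMSO). Reaction started with 2 μM ATP and run to about 50% ATP depletion. Remaining ATP measured by KinaseGlo luminescence.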

[4] = molecular target: PIM3 (Homo sapiens, UniProt Q86V86); test: KinaseGlo Pim3 ATP depletion assay; type: biochemical
Method in brief: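 Kinase was preincubated 15 min with BAD peptide in HEPES pH 7.5/MgCl2/DTT/BSA before ATP was added. Final concentrations were 40 μM ATP, 100 μM BAD peptide and 2.5% DMSO, with 5 nM enzyme. The reaction ran to ~50% ATP depletion and remaining ATP was read by KinaseGlo Plus luminescence.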

[5] = molecular target: PIM2 (Homo sapiens, UniProt Q9P1W9); test: KinaseGlo Pim2 ATP depletion assay; type: biochemical
Method in brief: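 Luminescent ATP-depletion read-out of PIM2 phosphorylating BAD peptide (RSRHSSYPAGT-OH). Final conditions: 5 nM PIM2, 4 μM ATP, 10 μM peptide, 2.5% DMSO in 50 mM HEPES pH 7.5, 5 mM MgCl2, 1 mM DTT, 0.05% BSA. Enzyme–peptide preincubated 15 min with compound; reaction run to ~50% ATP depletion.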

Chain of PIM1 (P11309 whole entry): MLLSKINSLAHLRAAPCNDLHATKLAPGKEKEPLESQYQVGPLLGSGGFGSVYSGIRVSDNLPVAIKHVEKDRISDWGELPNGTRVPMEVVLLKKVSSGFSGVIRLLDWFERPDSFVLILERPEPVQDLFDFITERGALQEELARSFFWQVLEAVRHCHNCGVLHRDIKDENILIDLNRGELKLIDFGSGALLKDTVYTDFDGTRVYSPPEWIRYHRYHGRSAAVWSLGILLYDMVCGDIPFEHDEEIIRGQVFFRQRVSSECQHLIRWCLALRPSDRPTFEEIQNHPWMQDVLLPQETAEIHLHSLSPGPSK
Chain of PIM2 (Q9P1W9 whole entry): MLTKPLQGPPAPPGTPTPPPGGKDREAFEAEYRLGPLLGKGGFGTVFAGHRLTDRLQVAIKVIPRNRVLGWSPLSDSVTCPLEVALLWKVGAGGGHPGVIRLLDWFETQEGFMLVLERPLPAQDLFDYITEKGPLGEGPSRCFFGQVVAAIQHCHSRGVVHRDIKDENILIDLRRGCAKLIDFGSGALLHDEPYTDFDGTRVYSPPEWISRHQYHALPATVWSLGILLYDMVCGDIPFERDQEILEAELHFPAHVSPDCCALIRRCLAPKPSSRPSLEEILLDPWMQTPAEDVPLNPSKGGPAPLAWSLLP
Chain of GSK3β (P49841 whole entry, species assumed): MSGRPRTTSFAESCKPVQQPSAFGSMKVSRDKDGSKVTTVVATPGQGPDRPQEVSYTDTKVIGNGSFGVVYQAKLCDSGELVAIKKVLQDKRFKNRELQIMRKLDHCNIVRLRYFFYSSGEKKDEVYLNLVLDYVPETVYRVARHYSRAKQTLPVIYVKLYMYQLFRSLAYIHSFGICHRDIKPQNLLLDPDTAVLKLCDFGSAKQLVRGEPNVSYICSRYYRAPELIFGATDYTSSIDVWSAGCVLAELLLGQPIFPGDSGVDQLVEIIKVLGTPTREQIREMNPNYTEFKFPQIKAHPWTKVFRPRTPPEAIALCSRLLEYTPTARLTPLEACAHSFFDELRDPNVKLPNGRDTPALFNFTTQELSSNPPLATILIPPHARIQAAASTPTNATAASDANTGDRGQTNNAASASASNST

Row | Structure (SMILES) | pIC50 [1] | pEC50 [2] | pIC50 [3] | pIC50 [4] | pIC50 [5]
1 | CC1C(c2ccncc2NC(=O)c2ccc(F)c(-c3c(F)cccc3F)n2)OC(C)[C@@H](O)C1O (stereo in doubt) [Example 67, 6-(2,6-difluorophenyl)-N-(4-((2R,3S,4R,5S,6R)-4,5-dihydroxy-3,6-dimethyltetrahydro-2H-pyran-2-yl)pyridin-3-yl)-5-fluoropicolinamide] | 8.40 | < 5.00 | 6.01 | 7.66 | 6.52
2 | C=C[C@H]1O[C@@H](c2ccncc2NC(=O)c2nc(-c3c(F)cccc3F)ncc2N)C[C@@H](O)[C@@H]1O [Example 161, 5-amino-2-(2,6-difluorophenyl)-N-(4-((2R,4R,5S,6R)-4,5-dihydroxy-6-vinyltetrahydro-2H-pyran-2-yl)pyridin-3-yl)pyrimidine-4-carboxamide] | 7.48 | < 5.00 | 5.84 | 7.80 | 7.65
3 | Nc1cnc(-c2c(F)cccc2F)nc1C(=O)Nc1cnccc1[C@@H]1C[C@H](O)[C@]2(O)CCC[C@@H]2O1 [Example 182, 5-amino-2-(2,6-difluorophenyl)-N-(4-((2S,4S,4aR,7aS)-4,4a-dihydroxyoctahydrocyclopenta[b]pyran-2-yl)pyridin-3-yl)pyrimidine-4-carboxamide] | 6.27 | < 5.00 | 5.57 | 6.02 | 5.56
4 | CC[C@@]1(O)[C@H](C)O[C@H](c2ccncc2NC(=O)c2ccc(F)c(-c3c(F)cccc3F)n2)C[C@@H]1O [Example 73, 6-(2,6-difluorophenyl)-N-(4-((2S,4S,5S,6S)-5-ethyl-4,5-dihydroxy-6-methyltetrahydro-2H-pyran-2-yl)pyridin-3-yl)-5-fluoropicolinamide] | 8.00 | < 5.00 | 5.49 | 6.70 | 5.96
5 | O=C(Nc1cnccc1[C@H]1CCCCO1)c1ccc(F)c(-c2c(F)cccc2F)n1 [Example 134, (R)-6-(2,6-difluorophenyl)-5-fluoro-N-(4-(tetrahydro-2H-pyran-2-yl)pyridin-3-yl)picolinamide] | 8.00 | < 5.00 | 6.12 | 6.40 | 6.17
6 | O=C(Nc1cnccc1[C@@H]1C[C@H](O)CCO1)c1csc(-c2c(F)cccc2F)n1 [Example 130, 2-(2,6-difluorophenyl)-N-(4-((2S,4R)-4-hydroxytetrahydro-2H-pyran-2-yl)pyridin-3-yl)thiazole-4-carboxamide] | 7.92 | < 5.00 | 6.64 | 7.08 | 5.63
7 | C[C@@H]1OC(c2ccncc2NC(=O)c2nc(-c3c(F)cccc3F)ncc2N)=C[C@H](O)[C@@]1(C)O [Example 10, 5-amino-2-(2,6-difluorophenyl)-N-(4-((2S,3R,4S)-3,4-dihydroxy-2,3-dimethyl-3,4-dihydro-2H-pyran-6-yl)pyridin-3-yl)pyrimidine-4-carboxamide] | 7.73 | 5.06 | 5.83 | 7.69 | 7.40
8 | CC1(C)O[C@@H](c2ccncc2NC(=O)c2ccc(F)c(-c3c(F)cccc3F)n2)C[C@H](O)[C@@H]1O [Example 89, 6-(2,6-difluorophenyl)-N-(4-((2R,4S,5S)-4,5-dihydroxy-6,6-dimethyltetrahydro-2H-pyran-2-yl)pyridin-3-yl)-5-fluoropicolinamide] | 9.00 | 5.62 | 7.06 | 8.70 | 8.22
9 | CC[C@H]1O[C@@H](c2ccncc2NC(=O)c2nc(-c3c(F)cccc3F)ncc2N)C[C@@H](O)[C@]1(C)O [Example 168, 5-amino-2-(2,6-difluorophenyl)-N-(4-((2R,4R,5S,6R)-6-ethyl-4,5-dihydroxy-5-methyltetrahydro-2H-pyran-2-yl)pyridin-3-yl)pyrimidine-4-carboxamide] | 8.52 | 5.23 | 5.99 | 8.57 | 8.64
10 | C[C@@H]1C[C@H](O)C[C@H](c2ccncc2NC(=O)c2csc(-c3c(F)cccc3F)n2)O1 (stereo in doubt) [Example 125, 2-(2,6-difluorophenyl)-N-(4-((2R,4S,6R)-4-hydroxy-6-methyltetrahydro-2H-pyran-2-yl)pyridin-3-yl)thiazole-4-carboxamide] | 8.00 | < 5.00 | 6.98 | 6.78 | 5.63
11 | C[C@H]1O[C@@H](c2ccncc2NC(=O)c2ccc(F)c(-c3ccccc3F)n2)C[C@@H](O)[C@]1(C)O [Example 93, N-(4-((2R,4R,5S,6R)-4,5-dihydroxy-5,6-dimethyltetrahydro-2H-pyran-2-yl)pyridin-3-yl)-5-fluoro-6-(2-fluorophenyl)picolinamide] | 9.00 | < 5.00 | 6.93 | 8.30 | 7.23
12 | O=C(Nc1cnccc1[C@@H]1C[C@H](O)[C@]2(O)CCC[C@@H]2O1)c1ccc(F)c(-c2c(F)cccc2F)n1 [Example 188, 6-(2,6-difluorophenyl)-N-(4-((2S,4S,4aR,7aS)-4,4a-dihydroxyoctahydrocyclopenta[b]pyran-2-yl)pyridin-3-yl)-5-fluoropicolinamide] | 7.46 | < 5.00 | 6.14 | 6.84 | 6.50
13 | O=C(Nc1cnccc1[C@H]1OCC[C@@H](CO)O1)c1ccc(F)c(-c2c(F)cccc2F)n1 [Example 103, 6-(2,6-difluorophenyl)-5-fluoro-N-(4-((2S,4S)-4-(hydroxymethyl)-1,3-dioxan-2-yl)pyridin-3-yl)picolinamide] | 7.96 | < 5.00 | 5.62 | 7.57 | 6.30
14 | Nc1cc(F)c(-c2ccccc2F)nc1C(=O)Nc1cnccc1[C@H]1C[C@@H](O)[C@H](O)[C@@H](CCl)O1 [Example 38, 3-amino-N-(4-((2R,4R,5S,6S)-6-(chloromethyl)-4,5-dihydroxytetrahydro-2H-pyran-2-yl)pyridin-3-yl)-5-fluoro-6-(2-fluorophenyl)picolinamide] | 9.00 | 5.16 | 7.82 | 8.70 | 8.52
15 | CC[C@]1(O)[C@H](O)C[C@H](c2ccncc2NC(=O)c2nc(-c3cnn(C)c3C)ccc2N)O[C@@H]1C [Example 156, 3-amino-6-(1,5-dimethyl-1H-pyrazol-4-yl)-N-(4-((2R,4R,5S,6R)-5-ethyl-4,5-dihydroxy-6-methyltetrahydro-2H-pyran-2-yl)pyridin-3-yl)picolinamide] | 7.60 | < 5.00 | 7.66 | 7.37 | 6.27
16 | N#CC[C@H]1O[C@@H](c2ccncc2NC(=O)c2ccc(F)c(-c3c(F)cccc3F)n2)CC[C@@H]1O [Example 46, N-(4-((2R,5S,6R)-6-(cyanomethyl)-5-hydroxytetrahydro-2H-pyran-2-yl)pyridin-3-yl)-6-(2,6-difluorophenyl)-5-fluoropicolinamide] | 8.15 | < 5.00 | 6.35 | 7.48 | 6.83
